Key:
[1] = in vivo
[2] = in vivo; cited from earlier work

| Compound | Class(High: HIA value ≥0.7; Low: HIA value < 0.7) [1] | HIA(Human Intestinal Absorption) [2] |
| --- | --- | --- |
| Cc1cccc(C)c1NC(=O)[C@@H](C)N [Tocainide(R)] | High (key: High: HIA value ≥0.7; Low: HIA value < 0.7) | 1 |
| C[C@H](O)Cn1cnc2c1c(=O)n(C)c(=O)n2C [Proxyphylline(S)] | High (key: High: HIA value ≥0.7; Low: HIA value < 0.7) | 1 |
| COC(=O)C1=C(C)NC(C)=C(C(=O)OCC(C)C)[C@H]1c1ccccc1[N+](=O)[O-] [Nisoldipine(S)] | High (key: High: HIA value ≥0.7; Low: HIA value < 0.7) | 0.9 |
| COC(=O)C1=C(C#N)NC(C)=C(C(=O)OC(C)C)[C@H]1c1cccc([N+](=O)[O-])c1 [Nilvadipine(R)] | High (key: High: HIA value ≥0.7; Low: HIA value < 0.7) | 1 |
| O=C(NC[C@@H]1CCCCN1)c1cc(OCC(F)(F)F)ccc1OCC(F)(F)F [Flecainide(S)] | High (key: High: HIA value ≥0.7; Low: HIA value < 0.7) | 0.81 |
| CC(C)=CCN1CCC2(C)c3cc(O)ccc3CC1C2C (stereo not drawn) [Pentazocine] | High (key: High: HIA value ≥0.7; Low: HIA value < 0.7) | 0.95 |
| COc1cccc(C(=O)CCN[C@@H](C)[C@H](O)c2ccccc2)c1 [Oxyfedrine] | High (key: High: HIA value ≥0.7; Low: HIA value < 0.7) | 0.84 |
| Cn1c(=O)c2c(ncn2CCCNC[C@@H](O)c2cc(O)cc(O)c2)n(C)c1=O [Reproterol(S)] | Low (key: High: HIA value ≥0.7; Low: HIA value < 0.7) | 0.6 |
| CN1C(=O)C[C@@](C)(c2ccccc2)C1=O [Methsuximide(S)] | High (key: High: HIA value ≥0.7; Low: HIA value < 0.7) | 1 |
| CC(C)[C@H]1CC[C@H](C(=O)N[C@H](Cc2ccccc2)C(=O)O)CC1 [Nateglinide(R)] | High (key: High: HIA value ≥0.7; Low: HIA value < 0.7) | 0.83 |
| CC[C@@]1(c2ccc(N)cc2)CCC(=O)NC1=O [Aminoglutethimide(S)] | High (key: High: HIA value ≥0.7; Low: HIA value < 0.7) | 1 |
| CC(C)(C)NC[C@H](O)COc1nsnc1N1CCOCC1 [Timolol(S)] | High (key: High: HIA value ≥0.7; Low: HIA value < 0.7) | 0.95 |
| CCOC(=O)[C@H](CCc1ccccc1)N[C@@H](C)C(=O)N1[C@H](C(=O)O)C[C@@H]2CCC[C@@H]21 [Ramipril] | Low (key: High: HIA value ≥0.7; Low: HIA value < 0.7) | 0.6 |
| NCCC[C@](N)(C(=O)O)C(F)F [Eflornithine(S)] | Low (key: High: HIA value ≥0.7; Low: HIA value < 0.7) | 0.55 |
| O=C1Nc2ccc(Cl)cc2C(c2ccccc2Cl)=N[C@H]1O [Lorazepam(S)] | High (key: High: HIA value ≥0.7; Low: HIA value < 0.7) | 0.95 |
| CCOC(=O)C1=C(C)NC(C)=C(C(=O)OC)[C@H]1c1cccc([N+](=O)[O-])c1 [Nitrendipine(R)] | High (key: High: HIA value ≥0.7; Low: HIA value < 0.7) | 0.88 |
| N[C@@H](C(=O)N[C@@H]1C(=O)N2C(C(=O)O)=C(Cl)CC[C@H]12)c1ccccc1 [Loracarbef] | High (key: High: HIA value ≥0.7; Low: HIA value < 0.7) | 1 |
| Cc1ncsc1CCCl [Clomethiazole] | High (key: High: HIA value ≥0.7; Low: HIA value < 0.7) | 0.95 |
| CCN(C)C(=O)Oc1cccc([C@H](C)N(C)C)c1 [Rivastigmine] | High (key: High: HIA value ≥0.7; Low: HIA value < 0.7) | 0.98 |
| NS(=O)(=O)c1cc([C@]2(O)NC(=O)c3ccccc32)ccc1Cl [Chlorthalidone(R)] | Low (key: High: HIA value ≥0.7; Low: HIA value < 0.7) | 0.65 |
| O=C(O)CN(CCN(CC(=O)O)CC(=O)O)CC(=O)O [Edetic_acid] | Low (key: High: HIA value ≥0.7; Low: HIA value < 0.7) | 0.05 |

| Compound | Class(High: HIA value ≥0.7; Low: HIA value < 0.7) [1] | HIA(Human Intestinal Absorption) [2] |
| --- | --- | --- |
| Cc1nnc2n1-c1ccc(Cl)cc1C(c1ccccc1)=NC2 [Alprazolam] | High (key: High: HIA value ≥0.7; Low: HIA value < 0.7) | 0.9 |
| CCCCCc1cc(O)c2c(c1)OC(C)(C)[C@@H]1CCC(C)=C[C@@H]21 [Tetrahydrocannabinol] | High (key: High: HIA value ≥0.7; Low: HIA value < 0.7) | 0.93 |
| CCOc1cc(CC(=O)NC(CC(C)C)c2ccccc2N2CCCCC2)ccc1C(=O)O (stereo in doubt) [Repaglinide(R)] | High (key: High: HIA value ≥0.7; Low: HIA value < 0.7) | 1 |
| CC[C@@]1(c2cccc(O)c2)CCCCN(C)C1 [Meptazinol(S)] | High (key: High: HIA value ≥0.7; Low: HIA value < 0.7) | 1 |
| CC(C)NC[C@H](O)c1ccc(NS(C)(=O)=O)cc1 [Sotalol(R)] | High (key: High: HIA value ≥0.7; Low: HIA value < 0.7) | 0.95 |
| CC1(C)S[C@@H]2[C@H](NC(=O)C(C(=O)Oc3ccccc3)c3ccccc3)C(=O)N2[C@H]1C(=O)O (stereo partly drawn) [Carfecillin(R)] | High (key: High: HIA value ≥0.7; Low: HIA value < 0.7) | 0.99 |
| Clc1ccc(CO[C@H](Cn2ccnc2)c2ccc(Cl)cc2Cl)c(Cl)c1 [Miconazole(S)] | High (key: High: HIA value ≥0.7; Low: HIA value < 0.7) | 0.99 |
| N[C@@H](CO)C(=O)NNCc1ccc(O)c(O)c1O [Benserazide(S)] | High (key: High: HIA value ≥0.7; Low: HIA value < 0.7) | 0.7 |
| OC[C@@H](O)COc1ccc(Cl)cc1 [Chlorphenesin(R)] | High (key: High: HIA value ≥0.7; Low: HIA value < 0.7) | 1 |
| COc1ccccc1OCCNC[C@H](O)COc1cccc2[nH]c3ccccc3c12 [Carvedilol(S)] | High (key: High: HIA value ≥0.7; Low: HIA value < 0.7) | 0.8 |
| N[C@H](CO)C(=O)NNCc1ccc(O)c(O)c1O [Benserazide(R)] | High (key: High: HIA value ≥0.7; Low: HIA value < 0.7) | 0.7 |
| COP(=O)(OC)O[C@H](c1ccc(Cl)cc1)P(=O)(OC)OC [Mifobate(S)] | High (key: High: HIA value ≥0.7; Low: HIA value < 0.7) | 0.82 |
| OC[C@H](O)COc1ccc(Cl)cc1 [Chlorphenesin(S)] | High (key: High: HIA value ≥0.7; Low: HIA value < 0.7) | 1 |
| CCN(CC)CCCOC(=O)C1(c2ccccc2)CC2CCC1C2 (stereo not drawn) [Bornaprine] | High (key: High: HIA value ≥0.7; Low: HIA value < 0.7) | 1 |
| CCN(CC)[C@@H](C)C(=O)c1ccccc1 [Diethylpropion(S)] | High (key: High: HIA value ≥0.7; Low: HIA value < 0.7) | 0.95 |
| CCC(C)n1ncn(-c2ccc(N3CCN(c4ccc(OCC5COC(Cn6cncn6)(c6ccc(Cl)cc6Cl)O5)cc4)CC3)cc2)c1=O [Itraconazole(R)] | High (key: High: HIA value ≥0.7; Low: HIA value < 0.7) | 0.8 |
| CN(C)CC[C@H](c1ccccc1)c1ccccn1 [Pheniramine(R)] | High (key: High: HIA value ≥0.7; Low: HIA value < 0.7) | 0.99 |
| Cc1ccc(-c2nc3ccc(C)cn3c2CC(=O)N(C)C)cc1 [Zolpidem] | High (key: High: HIA value ≥0.7; Low: HIA value < 0.7) | 0.95 |
| CC[C@]1(c2cccc(O)c2)CCCCN(C)C1 [Meptazinol(R)] | High (key: High: HIA value ≥0.7; Low: HIA value < 0.7) | 1 |
| CC(C)NC[C@H](O)c1ccc(O)c(O)c1 [Isoproterenol(R)] | High (key: High: HIA value ≥0.7; Low: HIA value < 0.7) | 0.85 |
| CN1C(=O)CC(=O)N(c2ccccc2)c2cc(Cl)ccc21 [Clobazam] | High (key: High: HIA value ≥0.7; Low: HIA value < 0.7) | 0.87 |

Source: publication PMC4460250, “Systems Pharmacology Dissecting Holistic Medicine for Treatment of Complex Diseases: An Example Using Cardiocerebrovascular Diseases Treated by TCM” (Evidence-based Complementary and Alternative Medicine : eCAM, 2015)
